{"source": "patent US20140309310A1", "about": "(GACHON UNIVERSITY OF INDUSTRY-ACADEMIC COOPERATION …, priority 2011, published 2014)", "key": {"[1]": {"test_system": "osteopenia induced by aging (female C57BL/6J mice)", "assay": "Whole-body bone mineral density and bone mass by DEXA in mice with osteoporosis induced by aging", "format": "in vivo, mouse", "conditions": "DDS 2 mg/kg over 12 weeks", "protocol": "The mice were acclimated for 1 week, housed at a temperature of 21±1° C. and a humidity of 60%, and allowed access to food ad libitum."}, "Caenorhabditis elegans": {"test_system": "Caenorhabditis elegans", "conditions": "reported; cited from earlier work"}, "[2]": {"test_system": "ovariectomy-induced osteoporosis (ovariectomized BALB/c mice)", "assay": "High-resolution micro-CT imaging of femoral trabecular bone, trabecular thickness and separation in ovariectomized mice", "format": "in vivo, mouse", "conditions": "OVX mice, DDS oral 2 mg/kg", "protocol": "10-week-old BALB/c mice were subjected to ovariectomy (OVX) to make experimental animal models with osteopenia induced by OVX. […] All the animal studies were approved by the Animal Research Ethical Committee of Seoul National University. The trabecular bone of femoral region adjacent to the mouse shin was imaged by radiography using high-resolution micro-CT. The right limb of the mice was excised and stored in 10% formalin for one day. Then, the bone tissue was stored in 70% alcohol at 4° C. until use in analysis. The bone tissue was imaged by computer tomography using Skyscan 1076 Desktop X-ray Microtomograph (Skyscan, Belgium) at a tube voltage of 100 kV and an exposure current of 200 μA. For the acquired images, bone mineral density (BMD) and bone volume (BV) were measured using Skyscan CTan ver. 1.5.0 and Shortcut to ANT image analysis program (Skyscan, Belgium), and the acquired images were reconstituted into three-dimensional images. In addition, trabecular thickness (Tb. Th) and trabecular separation (Tb. Sp), which are the indices of morphological microstructures on the micro CT images, were measured, and the results of the measurement are shown in FIG. 3."}, "[3]": {"test_system": "ovariectomy-induced osteoporosis (ovariectomized BALB/c mice)", "assay": "Whole-body bone mineral density and bone mass by dual energy X-ray absorptiometry (DEXA) in ovariectomized mice", "format": "in vivo, mouse", "conditions": "DDS oral 2 mg/kg from 1 week before to 12 weeks after ovariectomy, whole body DEXA at 12 weeks, P<0.05 vs OVX", "text": "10-week-old BALB/c mice were subjected to ovariectomy (OVX) to make experimental animal models with osteopenia induced by OVX. […] All the animal studies were approved by the Animal Research Ethical Committee of Seoul National University."}}, "data": [{"smiles": "Nc1ccc(S(=O)(=O)c2ccc(N)cc2)cc1", "note": "[DDS, diaminodiphenylsulfone]", "values": [{"measurement": "change in bone mass, 8-month-old mice", "setting": "[1]; female C57BL/6J", "result": "no significant change"}, {"measurement": "change in bone mineral density, 8-month-old mice", "setting": "[1]; female C57BL/6J", "result": "no significant change"}, {"measurement": "increase in bone mass, 30-month-old mice", "setting": "[1]; female mice", "result": 9.6, "unit": "%"}, {"measurement": "increase in bone mineral density, 30-month-old mice", "setting": "[1]; female mice", "result": 5.11, "unit": "%"}, {"measurement": "increase of life span of Caenorhabditis elegans", "setting": "Caenorhabditis elegans", "result": "20-30%"}, {"measurement": "microstructure of the bone section (micro-CT three-dimensional image)", "setting": "[2]; femoral trabecular bone", "result": "as dense as that of the negative control group"}, {"measurement": "trabecular separation (Tb. Sp)", "setting": "[2]; micro-CT of femoral region", "result": "levels similar to those of the negative control group"}, {"measurement": "trabecular thickness (Tb. Th)", "setting": "[2]; micro-CT of femoral region", "result": "levels similar to those of the negative control group"}, {"measurement": "increase in bone mass compared to the positive control group (OVX)", "setting": "[3]", "result": 9.13, "unit": "%"}, {"measurement": "increase in bone mineral density compared to the positive control group (OVX)", "setting": "[3]", "result": 4.09, "unit": "%"}]}]}
